The source made the active and inactive calls.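 Rule for the calls: active = caspase luminescence falls with dose and the half-maximal concentration AC50 from the fitted curve is at or below a set limit; inconclusive = flat fit at 30 to 70% signal loss, or invalid fit; inactive = AC50 above the limit, or signal rises instead.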
system: INS-1E cytokine-induced caspase-3/7, Caspase-Glo luminescence, 48 h; assay: inhibitors of cytokine-induced caspase-3/7 activity, dose response, orthogonal assay for beta-cell apoptosis protection project, INS-1E rat cells, luminescence (AID 463206)

Structure (SMILES)	AC50
CCCC[n+]1ccn(C2=C([O-])c3ccccc3C(=O)/C2=N\S(=O)(=O)c2ccc(Br)cc2)c1	> 26 µM (inactive)
c1ccc(CN2CCN(Cc3c[nH]c4ccccc34)CC2)cc1	> 26 µM (inactive)
N=c1ccn(Cc2ccc(Cl)cc2Cl)cc1	> 26 µM (inactive)
CCCCSc1nc2sc3c(c2c(=O)n1-c1ccc(C)cc1)CCN(C)C3	> 26 µM (inactive)
Cc1nc2ccccc2nc1N/N=C/c1ccc(O)cc1O	> 26 µM (inactive)
CC(=O)c1c(C)[nH]c(C(=O)OCCCCN2C(=O)c3ccccc3C2=O)c1C	> 26 µM (inactive)
Cc1cc(C)c(C)c(S(=O)(=O)N2CCN(c3ncnc4ccccc34)CC2)c1C	> 26 µM (inactive)
Cc1nc2c(=O)n(C)c(=O)nc-2n(C)n1	> 26 µM (inactive)
O=[N+]([O-])c1cccc(/C=N/n2cnnc2)c1	> 26 µM (inactive)
CCOCCCNC(=O)c1c[nH]c2cc(OC)ccc2c1=O	> 26 µM (inactive)
COc1ccc(-n2c(-c3ccc(Br)cc3)c[n+]3c2CCc2ccccc2-3)cc1	> 26 µM (inactive)
Clc1ccc(C(c2ccc(Cl)cc2)n2cc[n+](CC(OCc3ccc(Cl)cc3Cl)c3ccc(Cl)cc3Cl)c2)cc1 (centres undefined)	> 26 µM (inactive)
CC1=C(C)/C(=N\OS(=O)(=O)c2ccc(C)cc2)C=CC1=O	> 26 µM (inactive)
O=C(N/N=C/c1ccc(O)cc1O)c1ccc(CN2C(=O)c3cccc4cccc2c34)cc1	> 26 µM (inactive)
COc1cnc(-c2ccccn2)nc1NC(C)C	> 12 µM (inactive)
COc1cccc(N2CCN(c3ncnc4c3[nH]c3ccc(F)cc34)CC2C)c1 (centres undefined)	> 26 µM (inactive)
Cc1cccc(Cn2nnc3c2C(=O)c2ccccc2C3=O)c1	> 26 µM (inactive)
Cc1ccc2c(c1)S/C(=C/c1ccc[n+](C)c1)N2CCO	> 26 µM (inactive)
COC1=C(Nc2ccccc2)C(=O)c2ccccc2C1=O	> 26 µM (inactive)
CCOc1ccc(N=Cc2c(C)[nH]n(-c3nc4ccccc4[nH]3)c2=O)cc1	> 26 µM (inactive)
O=C(CCCN1C(=O)/C(=C/c2ccccc2)SC1=S)NCCCn1ccnc1	> 26 µM (inactive)
O=C(/C(=C/c1cccc(Cl)c1)c1nc2ccccc2[nH]1)c1ccccc1	> 26 µM (inactive)
Nc1ccc(N2CCCCC2)cc1N1CCCCC1	> 26 µM (inactive)
COc1ccc(CNCCC(c2ccc(OC(C)C)cc2)c2ccccc2OC)cc1 (centres undefined)	> 26 µM (inactive)

Structure (SMILES)	AC50
Cc1cc(N/N=C/c2c(O)ccc3ccccc23)nc(-c2ccccc2O)n1	> 26 µM (inactive)
Cc1cc2cc(CN3C(=O)c4ccccc4C3=O)ccc2n1C	> 26 µM (inactive)
Oc1[nH]c2ccc(Br)cc2c1N=NC(=S)N1CCOCC1	> 26 µM (inactive)
COc1ccc(OC)c(NC(=O)CN(Cc2ccc(F)cc2)C2CCCCC2)c1	> 26 µM (inactive)
Cc1ccc(OCc2cc(C(=O)N(C)Cc3cc(C4CC4)n[nH]3)no2)cc1C	> 26 µM (inactive)
O=C(c1cc(-c2cccc(O)c2)on1)N1CCN(C(c2ccccc2)c2ccccc2)CC1	> 26 µM (inactive)
Cc1ccc(-c2nc(NC(=O)c3nn(C)cc3[N+](=O)[O-])sc2C)cc1C	> 26 µM (inactive)
CCOc1cccc(/C=N/NC(=O)c2cc(C3CC3)[nH]n2)c1O	> 26 µM (inactive)
O=C(Nc1nc(-c2ccccn2)cs1)Nc1ccc(F)cc1F	> 26 µM (inactive)
N#Cc1c([N+](=O)[O-])cc([N+](=O)[O-])cc1S(=O)(=O)Cc1ccccc1	> 26 µM (inactive)
Cc1ccc(C)c(NC(=O)c2ccccc2NS(=O)(=O)c2cc([N+](=O)[O-])ccc2C)c1	> 26 µM (inactive)
Cc1ccc(NC(=O)C2CCN(S(=O)(=O)c3ccc4c(c3)NC(=O)C(C)S4)CC2)cc1Cl (centres undefined)	> 26 µM (inactive)
Cc1cc(C)n(-c2nc(NC(C)(C)C)nc(NC(C)(C)C)n2)n1	> 26 µM (inactive)
C=C1C(=O)O[C@@H]2C[C@@H](C)[C@@H]3C4OC4C(=O)[C@@]3(C)[C@@H](O)[C@H]12 (some centres undefined)	> 26 µM (inactive)
C/C(=N\NC(=O)c1ccc(Cl)c(Cl)c1)c1ccccn1	> 26 µM (inactive)
CCOC(=O)[C@@H]1[C@H]2COc3cc(OC)ccc3[C@H]2N2C(=O)N(c3ccc(C(F)(F)F)cc3)C(=O)[C@]12C	> 26 µM (inactive)
COc1ccc(-c2cc3ccccc3oc2=O)cc1NC(=O)c1ccc([N+](=O)[O-])o1	> 26 µM (inactive)
C/C(=N\NC(=O)c1ccoc1C)c1ccccc1O	> 26 µM (inactive)
CCN1CCN(c2c(Cl)cccc2NC(=O)c2ccc([N+](=O)[O-])o2)CC1	> 26 µM (inactive)
O=C(C(Sc1ccccc1)c1ccccc1)N1CCN(c2ccccc2F)CC1 (centres undefined)	> 26 µM (inactive)
CC(=O)NC(C)c1cc(Cl)c2cccnc2c1O (centres undefined)	> 26 µM (inactive)
Cn1nc(C(C)(C)C)cc1C(=O)NCc1ccc2c(c1)OCO2	> 26 µM (inactive)
Cc1ccc(S(=O)(=O)N2CCN(c3ncnc4ccccc34)CC2)cc1	> 26 µM (inactive)
CCc1ccc(S(=O)(=O)/N=C2/C=C(Sc3ncn[nH]3)C(=O)c3ccccc32)cc1	> 26 µM (inactive)

Structure (SMILES)	AC50
Cc1ccc(N=Cc2c(C)[nH]n(-c3nc4ccccc4[nH]3)c2=O)cc1	> 26 µM (inactive)
Cc1nnc(N/N=C/c2ccccn2)[nH]c1=O	> 26 µM (inactive)
CC(C)=CCc1cc2c(=O)c3c(O)c4c(cc3oc2c(O)c1O)OC(C)C4(C)C (centres undefined)	> 26 µM (inactive)
Oc1ccc(CN2CCCc3ccccc32)c2cccnc12	> 26 µM (inactive)
CC(=O)c1c(C)oc2c1C(=O)c1ccccc1C2=O	> 26 µM (inactive)
Oc1ccc(N=Nc2ccc3c(c2)OCCO3)c2ncccc12	> 26 µM (inactive)
COc1ccc(C(=O)N2CCN(c3ccc([N+](=O)[O-])c(NCCc4ccc(OC)c(OC)c4)c3)CC2)cc1	> 26 µM (inactive)
COc1ccccc1C(NC(C)=O)c1cc(Cl)c2cccnc2c1O (centres undefined)	> 26 µM (inactive)
CC(Oc1ccc(Br)cc1)c1nc2c3ccccc3nc(=S)n2[nH]1 (centres undefined)	> 26 µM (inactive)
Clc1ccc(C[n+]2c(-c3ccccc3)cc(-c3ccccc3)cc2-c2ccccc2)cc1	> 12 µM (inactive)
CC1=CC(C)(C)N(C(=O)CSc2nnc(-c3ccc(C)cc3)o2)c2ccc(C)cc21	> 12 µM (inactive)
Cc1ccc(C)c(N=Nc2ccc(O)c3ncccc23)c1	> 26 µM (inactive)
Cc1cc(C)nc(SCC(=O)NC2=NN=C(c3ccc(Br)cc3)CS2)n1	> 26 µM (inactive)
CNC[C@H](CC1CCCCC1)NC[C@H](Cc1ccccc1)NCCC12CC3CC(CC(C3)C1)C2	> 26 µM (inactive)
O=C1C(Cl)=C(NCCN2CCCCC2)C(=O)c2ccccc21	> 26 µM (inactive)
CC1CCc2c(sc3nc(C4CC4)nc(N4CCN(C(=O)c5ccco5)CC4)c23)C1 (centres undefined)	> 26 µM (inactive)
CC(=O)Nc1ccc(S(=O)(=O)N2c3ccccc3NC(=O)CC2C)c(Cl)c1 (centres undefined)	> 26 µM (inactive)
CCCCCc1ccc(-c2cn(CN3C(=O)c4ccccc4C3=O)nn2)cc1	> 26 µM (inactive)
CN(C)C1CCN(Cc2cc(COCc3ccccc3)c3cccnc3c2O)C1 (centres undefined)	> 26 µM (inactive)
Cc1cc(OCc2nc(-c3ccc(NC(=O)c4cccnc4)cc3)no2)ccc1Cl	> 26 µM (inactive)
O=C(COc1ccccc1-c1ccccc1)N/N=C/c1ccc2ccccc2c1	> 12 µM (inactive)
Cc1nn(C)c(C)c1CN(C)S(=O)(=O)c1ccc2ccccc2c1	> 26 µM (inactive)
Cc1occc1C(=O)N/N=C/c1c(O)ccc2ccccc12	> 26 µM (inactive)
CCCCCCCCn1c2c(c(=N)c3c1CCC3)CCCC2	> 26 µM (inactive)

Structure (SMILES)	AC50
Cc1[nH]nc2nc(SCC(=O)NCCC3=CCCCC3)n(-c3ccc(Br)cc3)c(=N)c12	> 26 µM (inactive)
Cc1ccccc1CNc1ccc(C(CC(N)=O)NC(=O)c2ccc(Br)cc2)cc1[N+](=O)[O-] (centres undefined)	> 26 µM (inactive)
COc1ccc(CCNc2cc(N3CCN(C(=O)c4ccccc4OC)CC3)ccc2[N+](=O)[O-])cc1OC	> 26 µM (inactive)
COc1cc(N/N=C/c2ccccc2O)ncn1	> 26 µM (inactive)
O=C(NCC(c1ccco1)N1CCCC1)c1ccc(Cl)c(S(=O)(=O)N2CCc3ccccc32)c1 (centres undefined)	> 26 µM (inactive)
Oc1c(Br)cc(Br)cc1/C=N/Nc1ccc(Cl)nn1	> 26 µM (inactive)
Cc1ccc(C)c(S(=O)(=O)Nc2ccc(O)c3ccccc23)c1	> 26 µM (inactive)
COc1cccc(/C=N/Nc2cc(C)nc(-c3ccccc3O)n2)c1O	> 26 µM (inactive)
COc1ccc(NC(=O)/C(Cl)=C(/Cl)S(=O)Cc2ccccc2)cn1 (centres undefined)	> 26 µM (inactive)
O=C(NCc1cccnc1)/C(=C\c1ccc(-c2ccc(Br)cc2)o1)S(=O)(=O)c1ccccc1	> 26 µM (inactive)
Cc1ccc(S(=O)(=O)/N=C2/C=C(Sc3ncn[nH]3)C(=O)c3ccccc32)cc1	> 26 µM (inactive)
COc1ccc(/C=N/Nc2cc(C)nc3ccc(Br)cc23)cc1	> 26 µM (inactive)
COc1ccc(C(NC(C)=O)c2ccc3cccnc3c2O)c(OC)c1 (centres undefined)	> 26 µM (inactive)
C=CCn1c(=NC(=O)c2cc(-c3cccs3)nc3ccccc23)sc2cc(S(N)(=O)=O)ccc21	> 26 µM (inactive)
COC(=O)C1CN(C#N)N(c2ccc(Cl)cc2)C12c1ccccc1-c1ccccc12 (centres undefined)	> 26 µM (inactive)
CCCCCCCCCCCCCCCC[N+](C)(C)C	> 26 µM (inactive)
O=C(Nc1ccc(Cl)cc1)Nc1ccc(Cl)c(Cl)c1	> 26 µM (inactive)
O=C(NC(NC(=S)Nc1ccc(Cl)cc1Cl)C(Cl)(Cl)Cl)c1cccc([N+](=O)[O-])c1 (centres undefined)	> 26 µM (inactive)
Nc1c(C(=O)Nc2ccc(S(=O)(=O)N3CCCC3)cc2)sc2nc3cc4c(cc3cc12)CCC4	> 26 µM (inactive)
COc1ccc(O)c(/C=N/NC(=O)c2cccc(N3CCCC3=O)c2)c1	> 26 µM (inactive)
Cc1ccc(-c2nn(-c3ccccc3)cc2/C=N/NC(=O)c2ccc3c(c2)OCO3)cc1	> 26 µM (inactive)
COC(=O)C1CCN(C(=O)c2cc(-c3ccc(Cl)s3)nc3ccccc23)CC1	> 26 µM (inactive)

Reference: PubChem BioAssay AID463206 (Broad Institute, 2010)
